{"source": "paper PMC6934184", "about": "“Selective DNA-PKcs inhibition extends the therapeutic index of localized radiotherapy and chemotherapy” (The Journal of Clinical Investigation, 2019)", "molecular_target": "T1, CDK1/cyclin A2 (Homo sapiens, UniProt P06493)", "T1 construct": "purchased Thermo Fisher Scientific (Life Technologies) SelectScreen", "T1 sequence (P06493 whole entry)": "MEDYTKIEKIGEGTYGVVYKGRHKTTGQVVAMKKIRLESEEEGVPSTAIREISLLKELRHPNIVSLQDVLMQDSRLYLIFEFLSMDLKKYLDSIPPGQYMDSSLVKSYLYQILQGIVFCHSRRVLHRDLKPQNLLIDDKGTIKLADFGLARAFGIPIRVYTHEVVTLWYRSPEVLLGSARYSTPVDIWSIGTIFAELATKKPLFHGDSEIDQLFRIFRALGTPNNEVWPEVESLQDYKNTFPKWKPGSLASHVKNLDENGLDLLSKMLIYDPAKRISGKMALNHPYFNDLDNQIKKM", "T1 sequence (P20248 whole entry partner)": "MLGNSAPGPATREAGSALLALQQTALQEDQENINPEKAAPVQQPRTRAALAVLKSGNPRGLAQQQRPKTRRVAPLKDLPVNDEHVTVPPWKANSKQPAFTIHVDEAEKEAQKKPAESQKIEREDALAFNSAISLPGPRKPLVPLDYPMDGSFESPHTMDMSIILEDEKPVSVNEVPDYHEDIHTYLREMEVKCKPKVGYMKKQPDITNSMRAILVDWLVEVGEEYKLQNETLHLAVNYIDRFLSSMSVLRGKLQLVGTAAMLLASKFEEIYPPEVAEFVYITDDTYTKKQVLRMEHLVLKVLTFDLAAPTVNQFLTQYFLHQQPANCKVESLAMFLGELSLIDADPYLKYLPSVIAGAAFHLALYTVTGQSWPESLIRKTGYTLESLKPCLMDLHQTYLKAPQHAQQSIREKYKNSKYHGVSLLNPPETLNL", "assay": "SelectScreen LanthaScreen", "assay_type": "binding", "conditions": "1 µM", "in_short": "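SelectScreen broad panel; activity (Z'LYTE, Adapta) plus binding formats. ATP: Km app for CSF1R Z'LYTE; 10 for CAMK1 Adapta. Readout = % per kinase.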"}
{"molecule": "CN(C(=O)CN1CCOCC1)c1ccc2sc3c(-c4cccc5c(=O)cc(N6CC7CCC(C6)O7)oc45)cccc3c2c1", "note": "[NU5455]", "values": [{"measurement": "% displacement", "result": 3.3, "unit": "%"}]}
